The text below walks through data of US20110275695A1, “CRYSTALLINE FORMS OF ZOTEPINE HYDROCHLORIDE” (BIONEVIA PHARMACEUTICALS, INC., priority 2008, published 2011).

For series [1] the following is noted: pharmaceutical formulations containing the zotepine free base; cited from earlier work.
The nature of series [2]: Approximate aqueous solubility by portion-wise addition of solid to water, visual inspection. As for the experimental part:
An attempt was made to measure the aqueous solubility of zotepine hydrochloride. To a 1-dram vial was charged 99 mg of zotepine hydrochloride, and 1 mL of HPLC-grade water (obtained from Mallinckrodt) was added.
A 0.5-mL aliquot of the resulting zotepine hydrochloride aqueous solution was then charged to a second 2-dram vial, and 50 mg of zotepine hydrochloride (50 mg) was added. […] At this point, the procedure was discontinued.

Series [3] is described as follows: Intrinsic dissolution in water at 25° C. (Woods apparatus pellets, UV at 302 nm). The format is physicochemical. As to conditions: for intrinsic dissolution rate: 50 RPM, 900 mL, mean of three pellets, equivalent hydrochloride salt concentration, not normalized for surface area. As for the experimental part:
Intrinsic Dissolution: Pellets of approximately 200 mg were pressed at 3000 lbs. for 1 minute in a standard Woods apparatus, with a surface area of 0.5 cm^2. Three pellets were tested for each material, testing one material at a time. The samples were rotated in a VanKel dissolution apparatus, with automated sampling, at 50 RPM in 900 mL of water at 25° C. Aliquots were taken every two minutes and not filtered prior to analysis. Concentrations were determined through UV absorbance at approximately 302 nm, to avoid potential interference from benzoic acid. Equivalent hydrochloride salt concentrations were calculated from the Beer's Law plot generated from zotepine hydrochloride salt aqueous standards.
To determine the rate of dissolution of each material, a plot was generated of the absorbance over time for each vessel. From this plot, a linear region was chosen from the initial dissolution period of each material: starting at the first time point when the measured absorbance exceeded the minimum measured absorbance value in the Beer's Law relationship generated from zotepine hydrochloride salt aqueous standards. The end of the linear region was chosen as either 30 minutes after the first time point, or at the maximum recorded absorbance value that falls within the Beer's Law Relationship. Equivalent hydrochloride salt concentrations were plotted versus time for the regions. A straight-line was fit to the data for each vessel. The slope of these lines provides the dissolution rate for each of the materials, expressed as [μg/mL]/min. The mean of the three rates is the reported rate for each material, expressed as equivalent hydrochloride salt concentration, for direct comparison of the materials. The rates were not normalized for the surface area of the pellet.

Series [4] is described as follows: Equilibrium solubility in water, ambient-temperature slurry, UV measurement. Format: physicochemical. As to conditions: for aqueous solubility (in words) / solid recovered from solubility experiment (XRPD analysis): water; for aqueous solubility (in words) / solid recovered from solubility experiment (XRPD analysis) / equilibrium solubility in water: ambient temperature; for equilibrium solubility in water: UV analysis of supernatant. As to the method: Equilibrium Solubility—UV Measurement: Equilibrium solubility was determined in water using ambient-temperature slurry experiments. Samples were prepared with excess solids and agitated on a wheel for at least 3 days. Remaining solids were separated from the mixture by centrifugation. The clear supernatant was pipeted to a separate container and the concentration determined through ultraviolet (UV) spectrophotometry, diluting the sample with additional water if necessary. […] Equivalent zotepine hydrochloride salt concentrations were calculated from the Beer's Law plot generated front zotepine hydrochloride salt aqueous standards and adjusted to account for the stoichiometry of the solids utilized. Retained solids were analyzed by X-ray powder diffraction, if sufficient solids were present. Concentrations of aqueous solutions of BNV-218 were determined through ultraviolet absorbance. Ultraviolet spectrophotometry: Solutions were analyzed using a Cary 50 dual-beam spectrophotometer. They were analyzed at ambient temperature in a 1.000-cm quartz cuvette. Scans at 600 nm/min in the range of 800-200 nm were performed to determine an optimal wavelength for concentration measurement. The cuvette was washed with methanol, followed by water, and the detector was then zeroed prior to analysis of each sample. Wavelength calibration was performed using holmium oxide. The photometric accuracy was verified by measuring the intensity of the light at the detector when filters of known optical density were placed in the path of the beam.

For series [5] the following is noted: cited from earlier work.
Setting [6] is: listed as crystalline zotepine hydrochloride, hydrochloride.

Molecules are shown by their SMILES. “Also recorded” adds a separate entry of the source. Structures can show the parent of a compound that is named as a salt. Where two headings read alike, the source gives them in different places.

Consider `CN(C)CCOC1=Cc2ccccc2Sc2ccc(Cl)cc21` [zotepine free base, 2-[(8-chlorodibenzo[b,f]thiepin-10-yl)oxy]-N,N-dimethylethylamine, reference compound], for which the bioavailability in series [1] is given as 7-13%. For the same molecule, in series [2], the “approximate solubility / calculated aqueous concentration from amount of solid added” value is given as “less than 4 mg/mL”. In addition, the “dissolution rate in water (in words)” value in series [3] was “too low to be calculated; also recorded: negligible; also recorded: very close to zero”. Moreover, the “maximum UV absorbance in intrinsic dissolution experiment” value in series [3] (302 nm, experiment ended at 2,880 minutes) worked out at 0.02. For the same molecule, in series [4], the “largest recorded UV absorbance at end of equilibrium solubility experiment” value amounted to 0.02, the “aqueous solubility (in words)” value was “negligible” and the “solid recovered from solubility experiment (XRPD analysis)” value is “zotepine free base”. The “solubility in water as reported” value in series [5] is listed as “relatively insoluble in water”.

As for `CN(C)CCOC1=Cc2ccccc2Sc2ccc(Cl)cc21.CN(C)CCOC1=Cc2ccccc2Sc2ccc(Cl)cc21.Cl.Cl.O=C(O)c1ccccc1` [2:1 zotepine hydrochloride benzoic acid cocrystal], the “approximate solubility / calculated aqueous concentration from amount of solid added” value in series [2] (water, portion-wise addition of solid, ambient temperature) is at least 56 mg/mL. In series [3], the “dissolution rate in water (in words)” value is “intermediate between those of the 1:1 zotepine hydrochloride benzoic acid cocrystal and zotepine hydrochloride”; the “solid recovered after dissolution experiment (XRPD analysis)” value is recorded as “converts to the 2:1 zotepine hydrochloride benzoic acid cocrystal”; the intrinsic dissolution rate was 2.3 [μg/mL]/min.

With `CN(C)CCOC1=Cc2ccccc2Sc2ccc(Cl)cc21.Cl.O=C(O)c1ccccc1` [1:1 zotepine hydrochloride benzoic acid cocrystal], the “surface activity (suds on addition of solid to water, visual inspection)” value in series [2] (water) was “exhibited surface activity”. Further, in series [3], the “dissolution rate in water (in words)” value was “intermediate between those of zotepine free base and zotepine hydrochloride”; the “solid recovered after dissolution experiment (XRPD analysis)” value is on record as “the 1:1 zotepine hydrochloride benzoic acid cocrystal”; the intrinsic dissolution rate is 0.3 [μg/mL]/min. In series [4], the “equilibrium solubility in water” value is reported as about 44 mg/mL and the “solid recovered from solubility experiment (XRPD analysis)” value is given as 1:1 benzoic acid cocrystal. The “equilibrium solubility in water” value in series [4] (listed as 1:1 benzoic acid cocrystal) is listed as “approximately 44 mg/mL”.

For the molecule `CN(C)CCOC1=Cc2ccccc2Sc2ccc(Cl)cc21` [zotepine hydrochloride], the “surface activity (suds on addition of solid to water, visual inspection)” value in series [2] is on record as “high surface activity”. The intrinsic dissolution rate in series [3] (listed as zotepine hydrochloride salt, hydrochloride) was 3.9 [μg/mL]/min. Also, in series [3] (setting [6]), the “dissolution rate in water (in words)” value was “significantly higher”. In addition, the “aqueous solubility (in words)” value in series [4] (setting [6]) is “significantly higher”.
